Laboratory results taken from ChEMBL document CHEMBL1201862, “PubChem BioAssay data set” (2004).
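Where inhibition never reached the appropriate level, the endpoint shown equals the highest concentration tested. Otherwise, values were interpolated linearly from a five-concentration, 48-hour dose response in 96-well plates. At the GI50, growth is halved.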 Activity calls are given as the source filed them. No stated cut-off is given here; in the data, active = GI50 up to about 1.1 µM and inactive = higher.

Columns and labels:
Assay in all cases: inhibition of tumour cell growth, NCI panel, 48 h
SK-OV-3 = system: SK-OV-3
UO-31 = system: UO-31
EKVX = system: EKVX
LOX IMVI = system: LOX IMVI
MOLT-4 = system: MOLT-4
TK-10 = system: TK-10
SF-539 = system: SF-539
KM12 = system: KM12
SNB-75 = system: SNB-75
COLO 205 = system: COLO 205
HCT-15 = system: HCT-15
K562 = system: K562
HCT-116 = system: HCT-116
NCI-H460 = system: NCI-H460
786-0 = system: 786-0
NCI-H226 = system: NCI-H226
SF-295 = system: SF-295
M14 = system: M14
SR = system: SR
SK-MEL-28 = system: SK-MEL-28
NCI-H23 = system: NCI-H23
OVCAR-8 = system: OVCAR-8
HL-60 = system: HL-60
RXF 393 = system: RXF 393
IGROV-1 = system: IGROV-1
HT-29 = system: HT-29
SF-268 = system: SF-268
SK-MEL-5 = system: SK-MEL-5
OVCAR-4 = system: OVCAR-4
UACC-257 = system: UACC-257
PC-3 = system: PC-3
MCF7 = system: MCF7
U-251 = system: U-251
RPMI-8226 = system: RPMI-8226
UACC-62 = system: UACC-62
T47D = system: T47D
CCRF-CEM = system: CCRF-CEM
CAKI-1 = system: CAKI-1
DU-145 = system: DU-145
MDA-MB-231 = system: MDA-MB-231
SK-MEL-2 = system: SK-MEL-2
SNB-19 = system: SNB-19
HCC 2998 = system: HCC 2998
HOP-62 = system: HOP-62
HOP-92 = system: HOP-92
A498 = system: A498
NCI/ADR-RES = system: NCI/ADR-RES
SW-620 = system: SW-620
MDA-MB-435 = system: MDA-MB-435
Hs-578T = system: Hs-578T
ACHN = system: ACHN
MDA-N = system: MDA-N
OVCAR-5 = system: OVCAR-5
A549 = system: A549
OVCAR-3 = system: OVCAR-3
Malme-3M = system: Malme-3M
SN12C = system: SN12C

`Cc1ccc(-n2c(N)c(C#N)c3[nH]nc(N)c3c2=O)cc1` was tested. Which GI50 (SK-OV-3) did it give?
Its GI50 is > 100 µM (inactive).

What about the GI50 (UO-31) of the same compound?
The GI50 was > 100 µM (inactive).

And the GI50 (EKVX)?
The GI50 was 95.1 µM (inactive).

What about the GI50 (LOX IMVI) of the same compound?
The GI50 was > 100 µM (inactive).

What about the GI50 (MOLT-4) of the same compound?
The GI50 was > 100 µM (inactive).

What about the GI50 (TK-10) of the same compound?
Its GI50 is > 100 µM (inactive).

And the GI50 (SF-539)?
Its GI50 is > 100 µM (inactive).

And the GI50 (KM12)?
Its GI50 is > 100 µM (inactive).

What about the GI50 (SNB-75) of the same compound?
The GI50 was > 100 µM (inactive).

And the GI50 (COLO 205)?
The GI50 was > 100 µM (inactive).

And the GI50 (HCT-15)?
Its GI50 is greater than 100 µM.

What about the GI50 (K562) of the same compound?
The GI50 was > 100 µM (inactive).

And the GI50 (HCT-116)?
The GI50 was > 100 µM (inactive).

And the GI50 (NCI-H460)?
The GI50 was > 100 µM (inactive).

And the GI50 (786-0)?
The GI50 was > 100 µM (inactive).

And the GI50 (NCI-H226)?
Its GI50 is 41 µM (inactive).

What about the GI50 (SF-295) of the same compound?
The GI50 was > 100 µM (inactive).

What about the GI50 (M14) of the same compound?
Its GI50 is > 100 µM (inactive).

And the GI50 (SR)?
The GI50 was > 10 µM (inactive).

And the GI50 (SK-MEL-28)?
The GI50 was > 100 µM (inactive).

And the GI50 (NCI-H23)?
Its GI50 is > 100 µM (inactive).

And the GI50 (OVCAR-8)?
The GI50 was > 100 µM (inactive).

And the GI50 (HL-60)?
The GI50 was > 100 µM (inactive).

And the GI50 (RXF 393)?
Its GI50 is > 100 µM (inactive).

What about the GI50 (IGROV-1) of the same compound?
The GI50 was > 100 µM (inactive).

What about the GI50 (HT-29) of the same compound?
Its GI50 is > 100 µM (inactive).

And the GI50 (SF-268)?
The GI50 was > 100 µM (inactive).

And the GI50 (SK-MEL-5)?
Its GI50 is > 100 µM (inactive).

And the GI50 (OVCAR-4)?
Its GI50 is > 100 µM (inactive).

And the GI50 (UACC-257)?
The GI50 was > 100 µM (inactive).

And the GI50 (PC-3)?
The GI50 was > 100 µM (inactive).

What about the GI50 (MCF7) of the same compound?
The GI50 was > 100 µM (inactive).

And the GI50 (U-251)?
The GI50 was > 100 µM (inactive).

And the GI50 (RPMI-8226)?
The GI50 was > 100 µM (inactive).

What about the GI50 (UACC-62) of the same compound?
Its GI50 is > 100 µM (inactive).

What about the GI50 (T47D) of the same compound?
Its GI50 is > 100 µM (inactive).

What about the GI50 (CCRF-CEM) of the same compound?
Its GI50 is > 100 µM (inactive).

And the GI50 (CAKI-1)?
Its GI50 is > 100 µM (inactive).

And the GI50 (DU-145)?
Its GI50 is > 100 µM (inactive).

What about the GI50 (MDA-MB-231) of the same compound?
Its GI50 is > 100 µM (inactive).

What about the GI50 (SK-MEL-2) of the same compound?
Its GI50 is > 100 µM (inactive).

And the GI50 (SNB-19)?
Its GI50 is > 100 µM (inactive).

What about the GI50 (HCC 2998) of the same compound?
Its GI50 is > 100 µM (inactive).

And the GI50 (HOP-62)?
The GI50 was > 100 µM (inactive).

And the GI50 (HOP-92)?
Its GI50 is > 100 µM (inactive).

And the GI50 (A498)?
The GI50 was > 100 µM (inactive).

And the GI50 (NCI/ADR-RES)?
Its GI50 is > 100 µM (inactive).

What about the GI50 (SW-620) of the same compound?
Its GI50 is > 100 µM (inactive).

And the GI50 (MDA-MB-435)?
Its GI50 is > 100 µM (inactive).

And the GI50 (Hs-578T)?
The GI50 was > 100 µM (inactive).

What about the GI50 (ACHN) of the same compound?
The GI50 was > 100 µM (inactive).

Which results are given for `CCOC(=O)c1cnc(-n2[nH]c(C)c(CCO)c2=O)[nH]c1=O`?
GI50 (SK-OV-3): > 100 µM (inactive); GI50 (UO-31): > 100 µM (inactive); GI50 (EKVX): > 100 µM (inactive); GI50 (MDA-N): > 100 µM (inactive); GI50 (LOX IMVI): > 100 µM (inactive); GI50 (MOLT-4): > 100 µM (inactive); GI50 (TK-10): > 100 µM (inactive); GI50 (SF-539): > 100 µM (inactive); GI50 (KM12): > 100 µM (inactive); GI50 (SNB-75): 88.3 µM (inactive); GI50 (COLO 205): > 100 µM (inactive); GI50 (HCT-15): > 100 µM; GI50 (K562): > 100 µM (inactive); GI50 (HCT-116): > 100 µM (inactive); GI50 (NCI-H460): > 100 µM (inactive); GI50 (786-0): > 100 µM (inactive); GI50 (NCI-H226): > 100 µM (inactive); GI50 (SF-295): > 100 µM (inactive); GI50 (M14): > 100 µM (inactive); GI50 (SK-MEL-28): > 100 µM (inactive); GI50 (NCI-H23): > 100 µM (inactive); GI50 (OVCAR-8): > 100 µM (inactive); GI50 (HL-60): > 100 µM (inactive); GI50 (RXF 393): > 100 µM (inactive); GI50 (OVCAR-5): > 100 µM (inactive); GI50 (IGROV-1): > 100 µM (inactive); GI50 (HT-29): > 100 µM (inactive); GI50 (A549): > 100 µM (inactive); GI50 (SF-268): > 100 µM (inactive); GI50 (SK-MEL-5): > 100 µM (inactive); GI50 (OVCAR-3): > 100 µM (inactive); GI50 (Malme-3M): > 100 µM (inactive); GI50 (OVCAR-4): > 100 µM (inactive); GI50 (UACC-257): > 100 µM (inactive); GI50 (PC-3): > 100 µM (inactive); GI50 (MCF7): > 100 µM (inactive); GI50 (U-251): > 100 µM (inactive); GI50 (RPMI-8226): > 100 µM (inactive); GI50 (UACC-62): > 100 µM (inactive); GI50 (T47D): > 100 µM (inactive); GI50 (CCRF-CEM): > 100 µM (inactive); GI50 (CAKI-1): > 100 µM (inactive); GI50 (DU-145): > 100 µM (inactive); GI50 (MDA-MB-231): > 100 µM (inactive); GI50 (SK-MEL-2): > 100 µM (inactive); GI50 (SNB-19): > 100 µM (inactive); GI50 (HCC 2998): > 100 µM (inactive); GI50 (HOP-62): > 100 µM (inactive); GI50 (HOP-92): > 100 µM (inactive); GI50 (NCI/ADR-RES): > 100 µM (inactive); GI50 (SW-620): > 100 µM (inactive); GI50 (MDA-MB-435): > 100 µM (inactive); GI50 (SN12C): > 100 µM (inactive); GI50 (Hs-578T): > 100 µM (inactive); GI50 (ACHN): > 100 µM (inactive)
